Source: patent US20050215478A1, “Amino acid sequences capable of facilitating penetration across a biological barrier” (priority 2002, published 2005)
No end group written: not given here.

Experiments:
[1] = Relative potency of penetrating peptides as tested in mice (Example 3); type: in vivo; conditions: IBW-002 = 100
Excerpt: Relative Potency of Penetrating Peptides as Tested in Mice.

[2] = Translocation of ^125I-labeled peptide from mouse intestine loop into blood and organs (Example 1); type: in vivo, BALB/c mice; conditions: similar experiments; injected into a mouse intestinal loop; fraction of the full conjugate IBW-002
Excerpt: The tested peptide, representing a penetrating peptide and a radio-labeled probe in a contiguous construct of SEQ ID NO 3 and SEQ ID NO 17, hereby named IBW 002 (Novetide, lot 40139-45, sequence: Ac-NYYDITLALAGICQSARLVQQLAGGGKGGK-NH2 (SEQ ID NO:22), was ^125I-labeled using the Bolton Hunter Reagent (Biochem. J. 133:529-39 (1973)). The labeled peptide was loaded on a Sephadex G10 column, washed with phosphate buffer and eluted with 3M Tiocyanate in DDW+50% n-butanol. The peak, containing 6 fractions, was kept and used for in vivo experiments.
Four male BALB/c mice, 9-10 weeks old, were deprived of food, 18 hours prior to the experiment.
The mice were anesthetized by i.p. injection of 0.05 ml of a mixture of 0.15 ml xylazine+0.85 ml of ketamin. A 2 cm long incision was made along the center of the abdomen, through the skin and abdominal wall. An intestine loop was gently pulled out through the incision and placed on wet gauze beside the animal. The loop remained intact through the entire procedure and was kept wet during the whole time. The tested compound was injected into the loop, 0.2 ml/ mouse, containing around 200,000 cpm, using a 26G needle. Fifteen minutes post injection the tip of the tail was cut and a 50 μl blood sample was drawn into a glass capillary. This was repeated 30 and 60 minutes post injection. The animals were subsequently sacrificed. The following organs were removed: epididymal fat, kidneys, liver, lungs and brain. Radioactivity in each organ and in blood samples was counted. A 5 μl sample of the injected solution was counted to determine the total injected cpm per mouse.
The total radioactive labeling injected per mouse was 224,160 cpm. Total cpm in the blood was calculated based on the 50 μl blood sample drawn out at different time points post injection, in the assumption that total blood volume of each mouse is 2 ml.

Substance | Relative potency (%) [1] [%] | average amount recovered from the blood and various organs, relative to that obtained with IBW-002 [2]
AcMNYYDITLALAGICQSARLVQQLAGGGKGGKNH2 (Ac-MNYYDITLALAGICQSARLVQQLAGGGKGGK-NH2) [IBW-002V1] | 73 | –
AcMYDITLALAGICQSARIVQQLAGGKGGKNH2 [IBW-002V3] | 77 | –
AcNYFLVNLAFAEASMAAFNTVVNFGGKGGKNH2 (Ac-NYFLVNLAFAEASMAAFNTVVNFGGKGGK-NH2) [IBW-007] | 66 | –
AcNYHDIVLALAGVCQSARLVHQLAGGKGGKNH2 [IBW-006] | 77 | –
AcMRNLTRTSLLLAGLCTAAQMVFVGGGKGGKNh2 (Ac-MRNLTRTSLLLAGLCTAAQMVFVGGGKGGK-NH2) [IBW-005] | 51 | –
GGKGGK (also: 125I label, site not given here) [SEQ ID NO:17, reference compound] | – | about ⅕
AcNLPPIVLAVIGICAAVFLLQQYVGGGKGGKNH2 (Ac-NLPPIVLAVIGICAAVFLLQQYVGGGKGGK-NH2) [IBW-003] | 37 | –
AcNYFIVNLALADLCMAAFNAAFNFGGGKGGKNH2 (Ac-NYFIVNLALADLCMAAFNAAFNFGGGKGGK-NH2) [IBW-004] | 63 | –
AcMYYDITLALAGICQSARLVQQLAGGGKGGKNH2 (Ac-MYYDITLALAGICQSARLVQQLAGGGKGGK-NH2) [IBW-002V2] | 80 | –
